Reference: US4707481A, “Pyridazinones, their preparation and use, and bronchospasmolytic medicaments containing pyridazinones” (BYK Gulden Lomberg Chemische Fabrik GmbH, priority 1983, dated 1987)
Like-named read-outs stand apart in the source and are kept apart here. Values belong to the molecule of their own block, whether it stands above or below them.

What was measured:
[1] = tested on: guinea pig hearts isolated and perfused by the Langendorff method; test: left-ventricular pressure and heart rate in isolated perfused Langendorff hearts; conditions: for Emax: Cavia porcellus; for EC20 left-ventricular pressure: dose which leads to a 20% increase in left ventricular pressure
Excerpt: After the animals have been sacrificed by a blow to the neck and exsanguination through the carotid arteries, the thoracic cavity is opened, and the aorta is exposed and looped up with a thread. A cannula, which is attached by tubing to the apparatus from which the nutrient solution slowly drops, is introduced in the direction of the heart and the heart is, quickly after removal from the thorax, connected to the perfusion apparatus. A balloon probe, connected to a Statham pressure sensor, is advanced through a cut through the left atrium into the left ventricle, and is provided with an initial pressure of 40 mm Hg. […] The nutrient solution flowing freely from the coronary sinus into the right atrium is measured with a flow […]) and, together with the change in the left-ventricular pressure and the heart rate determined from this, is recorded on a Watanabe recorder. The substances are administered in a volume of 0.1 ml of nutrient solution, in the dosage indicated in Tab.

left ventricles of cats = test: heart function dP/dtmax, left ventricle of anesthetized cats; assay type: in vivo, cat; conditions: for increase in the heart rate or end-diastolic ventricular pressure / positive inotropic effects (increase in dP/dtmax) compared with comparison compounds: result in words
Description: The effect of the substances on the contractility of the heart in cats was tested on animals (.male., .female., 3.2 to 5.2 kg) under anesthesia with chloralose/urethane. The change in pressure in the left ventricle of the heart was measured with a tip catheter introduced through the right carotid artery, the R peak in the ECG (bipolar chest lead) initiating a signal to record the end-diastolic pressure; in addition, the maximum rate of pressure rise (dP/dtmax) was determined from the change in pressure. The heart rate was derived from the pressure waves. The test substances were administered intravenously. 2-6 animals were used per measurement, and the arithmetic mean was calculated from the results.

[2] = tested on: right ventricle of guinea pigs; test: heart function dP/dtmax, right ventricle of anesthetized guinea pigs; assay type: in vivo, guinea pig
Description: The effect of the substances on the contractility of the heart of guinea pigs is tested on animals (.male., 400 to 1000 g) under urethane anesthesia. The change in pressure in the right ventricle of the heart is measured with a tip catheter introduced through the right jugular vein and the maximum rate of pressure rise (dP/dtmax) is determined from this. The heart rate is derived from the pressure waves. […] The test substances were administered intravenously. 5-7 animals were used for each measurement, and the arithmetic mean was calculated from the results.

[3] = tested on: chain of tracheal rings of guinea pigs; test: relaxing action on chain of tracheal rings in vitro (bronchospasmolytic action); set-up: species or system guinea pig; conditions: for EC50: Cavia porcellus, Column A, negative logarithm of EC50 in mol/l, 50% of maximum relaxation by (-)isoprenaline, read-out: -lg[EC50] trachea (converted); for [EC40 pot.] left atrium / [EC50] trachea: Column C, measure of organ-selective activity; for [EC50] theophylline / [EC50] substance: Column D, trachea
[4] = tested on: electrically stimulated left atrium of rats; test: positive inotropic action on electrically stimulated left atrium in vitro; set-up: species or system rat; conditions: for [EC40 pot.] theophylline / [EC40 pot.] substance: Column E, left atrium; for EC40: Rattus norvegicus, Column B, negative logarithm of EC40pot in mol/l, 40% increase in contraction force, read-out: -lg[EC40 pot.] left atrium (converted)
Description: The positive inotropic action was tested in vitro on the electrically stimulated left atrium of rats (l.a.).
The positive inotropic action of the compounds was tested in vitro on the electrically stimulated left atrium of rats.
Isometric contractions (HSE force sensor K-30; Watanabe recorder, Linear Corder Mark 5) of isolated, left atria from rats (.male., 250-300 g) in an organ bath (10 ml, Tyrode nutrient solution, 31° C., gassing with carbogen, initial tension of the organs 0.25 g) under electrical stimulation (HSE stimulator, 7 V, 3 ms, 2 Hz) were recorded. […] The particular increase in the contraction force is expressed in % of the starting value before administration of the substance. The concentration of the test substance which potentiates the contraction force of the atrium by 40% compared with the starting value [EC40pot. mol/l], expressed by the negative logarithm of the [EC40pot mol/l]: -lg[EC40pot ] serves as a measure of the cardiotonic activity.

[5] = tested on: acetylcholine-induced bronchospasm; test: protective effect against acetylcholine-induced bronchospasm in conscious guinea pigs; assay type: in vivo, guinea pig
Description: The figure in parentheses indicates the number out of 10 animals in which the latency period more than tripled.
The latency period is to be understood to be the time from the start of acetylcholine-atomization until clear signs of asthma appeared.
The time from the start of atomization to the onset of clear respiratory exertion (in certain circumstances, hypoxic convulsion in the lateral position) is measured, and is denoted the latency period.
The test substance is administered orally by gavage (standard dose 100 μmol/kg, volume 1 ml of 4% strength methocel suspension in 0.9% strength sodium chloride solution/kg). […] Prolongation of the latency period to at least twice its length is regarded as a protective effect.

[6] = 0.3 μmol/kg i.v., 0-10 min (Maximum)
[7] = 1 μmol/kg i.v., 0-10 min (Maximum)
[8] = 3 μmol/kg i.v., 0-10 min (Maximum)
[9] = after 1000 nMol, read-out: Emax left-ventricular pressure
[10] = at Emax, 1000 nMol, read-out: Percentage increase in heart rate at Emax

Compound: Nc1cc(-c2ccncc2)c[nH]c1=O [Amrinone, amrinone, reference compound]
Emax ([1]; after 3000 nMol, read-out: Emax left-ventricular pressure): 35%
Emax ([1]; at Emax, 3000 nMol, read-out: Percentage increase in heart rate at Emax): 8%
Percentage increase in heart rate at EC20 [1]: 7%
EC20 left-ventricular pressure [1]: 1410 nmol
Percentage change in dP/dtmax (left ventricles of cats; 1 μmol/kg i.v., 3 min): 17%
Percentage change in dP/dtmax (left ventricles of cats; 1 μmol/kg i.v., 10 min): 6%
Percentage change in dP/dtmax (left ventricles of cats; 1 μmol/kg i.v., 30 min): 7%
Percentage change in dP/dtmax (left ventricles of cats; 1 μmol/kg i.v., 60 min): 23%
Percentage change in dP/dtmax (left ventricles of cats; 3 μmol/kg i.v., 3 min): 52%
Percentage change in dP/dtmax (left ventricles of cats; 3 μmol/kg i.v., 10 min): 42%
Percentage change in dP/dtmax (left ventricles of cats; 3 μmol/kg i.v., 30 min): 40%
Percentage change in dP/dtmax (left ventricles of cats; 3 μmol/kg i.v., 60 min): 43%
Percentage change in dP/dtmax (left ventricles of cats; 10 μmol/kg i.v., 3 min): 70%
Percentage change in dP/dtmax (left ventricles of cats; 10 μmol/kg i.v., 10 min): 67%
Percentage change in dP/dtmax (left ventricles of cats; 10 μmol/kg i.v., 30 min): 59%
Percentage change in dP/dtmax (left ventricles of cats; 10 μmol/kg i.v., 60 min): 55%
Percentage change in dP/dtmax [2, 6]: 33%
Percentage change in dP/dtmax ([2]; 0.3 μmol/kg i.v., 10 min): 8%
Percentage change in dP/dtmax ([2]; 0.3 μmol/kg i.v., 30 min): 13%
Percentage change in dP/dtmax [2, 7]: 40%
Percentage change in dP/dtmax ([2]; 1 μmol/kg i.v., 10 min): 21%
Percentage change in dP/dtmax ([2]; 1 μmol/kg i.v., 30 min): 15%
Percentage change in dP/dtmax [2, 8]: 66%
Percentage change in dP/dtmax ([2]; 3 μmol/kg i.v., 10 min): 13%
Percentage change in dP/dtmax ([2]; 3 μmol/kg i.v., 30 min): 20%
Percentage change in dP/dtmax ([2]; 10 μmol/kg i.v., 0-10 min (Maximum)): 101%
Percentage change in dP/dtmax ([2]; 10 μmol/kg i.v., 10 min): 39%
Percentage change in dP/dtmax ([2]; 10 μmol/kg i.v., 30 min): 29%
Percentage change in dP/dtmax ([2]; 30 μmol/kg i.v., 0-10 min (Maximum)): 141%
Percentage change in dP/dtmax ([2]; 30 μmol/kg i.v., 10 min): 78%
Percentage change in dP/dtmax ([2]; 30 μmol/kg i.v., 30 min): 69%

EC50 [3]: 1.32 µM
[EC40 pot.] left atrium / [EC50] trachea [3]: 2.9
[EC50] theophylline / [EC50] substance [3]: 102
Compound: CCOc1ccc(-c2ccc(=O)[nH]n2)cc1OC [Serial No. 4, 6-(4-ethoxy-3-methoxyphenyl)-3[2H]pyridazinone]
Emax ([1]; after 300 nMol, read-out: Emax left-ventricular pressure): 58%
Emax ([1]; at Emax, 300 nMol, read-out: Percentage increase in heart rate at Emax): 27%
Percentage increase in heart rate at EC20 [1]: 6%
EC20 left-ventricular pressure [1]: 22 nmol
[EC40 pot.] theophylline / [EC40 pot.] substance [4]: 109
EC40 [4]: 3.8 µM
Percentage change in dP/dtmax [2, 6]: 39%
Percentage change in dP/dtmax ([2]; 0.3 μmol/kg i.v., 10 min): 12%
Percentage change in dP/dtmax ([2]; 0.3 μmol/kg i.v., 30 min): 23%
Percentage change in dP/dtmax [2, 7]: 140%
Percentage change in dP/dtmax ([2]; 1 μmol/kg i.v., 10 min): 26%
Percentage change in dP/dtmax ([2]; 1 μmol/kg i.v., 30 min): 56%
Percentage change in dP/dtmax [2, 8]: 95%
Percentage change in dP/dtmax ([2]; 3 μmol/kg i.v., 10 min): 66%
Percentage change in dP/dtmax ([2]; 3 μmol/kg i.v., 30 min): 59%

EC50 [3]: 1.51 µM
[EC40 pot.] left atrium / [EC50] trachea [3]: 4.4
[EC50] theophylline / [EC50] substance [3]: 85.2
Compound: C=CCOc1ccc(-c2ccc(=O)[nH]n2)cc1OC [Serial No. 5, 6-(4-allyloxy-3-methoxyphenyl)-3[2H]pyridazinone]
Emax [1, 9]: 185%
Emax [1, 10]: 9%
Percentage increase in heart rate at EC20 [1]: 3%
EC20 left-ventricular pressure [1]: 14 nmol
Percentage change in dP/dtmax (left ventricles of cats; 0.3 μmol/kg i.v., 3 min): 27%
Percentage change in dP/dtmax (left ventricles of cats; 0.3 μmol/kg i.v., 10 min): 12%
Percentage change in dP/dtmax (left ventricles of cats; 0.3 μmol/kg i.v., 30 min): 11%
Percentage change in dP/dtmax (left ventricles of cats; 0.3 μmol/kg i.v., 60 min): 13%
Percentage change in dP/dtmax (left ventricles of cats; 1 μmol/kg i.v., 3 min): 64%
Percentage change in dP/dtmax (left ventricles of cats; 1 μmol/kg i.v., 10 min): 25%
Percentage change in dP/dtmax (left ventricles of cats; 1 μmol/kg i.v., 30 min): 15%
Percentage change in dP/dtmax (left ventricles of cats; 1 μmol/kg i.v., 60 min): 20%
increase in the heart rate or end-diastolic ventricular pressure (left ventricles of cats): without leading to any considerable increase in the heart rate or end-diastolic ventricular pressure
positive inotropic effects (increase in dP/dtmax) compared with comparison compounds (left ventricles of cats): stronger positive inotropic effects
[EC40 pot.] theophylline / [EC40 pot.] substance [4]: 63.1
EC40 [4]: 6.61 µM

Compound: CCC(C)Oc1ccc(-c2ccc(=O)[nH]n2)cc1OC (stereo not drawn) [Serial No. 7, 6-(4-sec.-butoxy-3-methoxyphenyl)-3[2H]pyridazinone]
EC50 [3]: 1.32 µM
[EC40 pot.] left atrium / [EC50] trachea [3]: 2.6
[EC50] theophylline / [EC50] substance [3]: 102
Emax [1, 9]: 86%
Emax [1, 10]: 23%
Percentage increase in heart rate at EC20 [1]: 3%
EC20 left-ventricular pressure [1]: 13 nmol
Percentage change in dP/dtmax (left ventricles of cats; 0.3 μmol/kg i.v., 3 min): 36%
Percentage change in dP/dtmax (left ventricles of cats; 0.3 μmol/kg i.v., 10 min): 4%
Percentage change in dP/dtmax (left ventricles of cats; 0.3 μmol/kg i.v., 30 min): 1%
Percentage change in dP/dtmax (left ventricles of cats; 0.3 μmol/kg i.v., 60 min): 2%
Percentage change in dP/dtmax (left ventricles of cats; 1 μmol/kg i.v., 3 min): 90%
Percentage change in dP/dtmax (left ventricles of cats; 1 μmol/kg i.v., 10 min): 25%
Percentage change in dP/dtmax (left ventricles of cats; 1 μmol/kg i.v., 30 min): 11%
Percentage change in dP/dtmax (left ventricles of cats; 1 μmol/kg i.v., 60 min): 11%
increase in the heart rate or end-diastolic ventricular pressure (left ventricles of cats): without leading to any considerable increase in the heart rate or end-diastolic ventricular pressure
positive inotropic effects (increase in dP/dtmax) compared with comparison compounds (left ventricles of cats): stronger positive inotropic effects
[EC40 pot.] theophylline / [EC40 pot.] substance [4]: 120
EC40 [4]: 3.47 µM

EC50 [3]: 3.09 µM
[EC40 pot.] left atrium / [EC50] trachea [3]: 324
[EC50] theophylline / [EC50] substance [3]: 43.7
Compound: CCCOc1ccc(-c2ccc(=S)[nH]n2)cc1OC [Serial No. 13, 6-(3-methoxy-4-n-propoxyphenyl)-3[2H]pyridazinethione]
Doubling of the latency period ([5]; 100 μmol/kg p.o., 30 min): 6 N of 10 animals
Tripling of the latency period ([5]; 100 μmol/kg p.o., 30 min, figure in parentheses): 6 N of 10 animals
protective effect compared with theophylline ([5]; result in words): greater protective effect
EC40 [4]: > 1000 µM

Compound: Cn1c(=O)c2[nH]cnc2n(C)c1=O.NCCN [Theophylline-ethylenediamine, theophylline-ethylenediamine, reference compound]
Percentage change in dP/dtmax (left ventricles of cats; 3 μmol/kg i.v., 3 min): 8%
Percentage change in dP/dtmax (left ventricles of cats; 3 μmol/kg i.v., 10 min): 2%
Percentage change in dP/dtmax (left ventricles of cats; 3 μmol/kg i.v., 30 min): 2%
Percentage change in dP/dtmax (left ventricles of cats; 3 μmol/kg i.v., 60 min): 1%
Percentage change in dP/dtmax (left ventricles of cats; 10 μmol/kg i.v., 3 min): 62%
Percentage change in dP/dtmax (left ventricles of cats; 10 μmol/kg i.v., 10 min): 30%
Percentage change in dP/dtmax (left ventricles of cats; 10 μmol/kg i.v., 30 min): 22%
Percentage change in dP/dtmax (left ventricles of cats; 10 μmol/kg i.v., 60 min): 26%

EC50 [3]: 1.41 µM
[EC40 pot.] left atrium / [EC50] trachea [3]: 1.5
[EC50] theophylline / [EC50] substance [3]: 95.5
Compound: CCOc1cc(-c2ccc(=S)[nH]n2)ccc1OC [compound 14]
[EC40 pot.] theophylline / [EC40 pot.] substance [4]: 200
EC40 [4]: 2.09 µM

EC50 [3]: 7.24 µM
[EC40 pot.] left atrium / [EC50] trachea [3]: 0.4
[EC50] theophylline / [EC50] substance [3]: 18.6
Compound: COc1ccc(-c2ccc(=S)[nH]n2)cc1OC(C)C [compound 17]
[EC40 pot.] theophylline / [EC40 pot.] substance [4]: 151
EC40 [4]: 2.75 µM

EC50 [3]: 4.07 µM
[EC40 pot.] left atrium / [EC50] trachea [3]: 0.6
[EC50] theophylline / [EC50] substance [3]: 33.1
Compound: COc1ccc(-c2ccc(=S)[nH]n2)cc1OCC(C)C [compound 18]
[EC40 pot.] theophylline / [EC40 pot.] substance [4]: 166
EC40 [4]: 1.58 µM
